A short description of data set [1]: Tested for the product of the drug concentration to the exposure time needed to reduce cell survival to 10% of controls using AA8 cells at 10 E 6 /mL in the clonogenic assay. The class given is functional, Cricetulus griseus, CHO-AA8.
The nature of data set [2]: CT10 (air/N2) ratio of the product of the drug concentration to the exposure time needed to reduce cell survival to 10% of controls using AA8 cells at 10 E 6 /mL in the clonogenic assay. Format: functional, Cricetulus griseus, CHO-AA8.
Data set [3] in a line: Tested for the concentration of the drug to reduce cell numbers to 50 percent of controls against AA8 cells in the microassay. Format: functional, cell-based, Cricetulus griseus. The note with it: cho-aa8.
Data set [4] in a line: IC50 (air/N2) ratio of the drug to reduce cell numbers to 50 percent of controls using AA8 cells in the microassay. Format: functional, Cricetulus griseus, CHO-AA8.
Data set [5] can be described thus: Acridine pKa values were determined in aqueous solution at 25 degrees Centigrade by spectrophotometric method. The class given is physicochemical.
Data set [6] in a line: Hypersensitivity factor, IC50 (AA8) air /IC50 (UV4) in N2. Format: functional.
Data set [7] can be described thus: Hypersensitivity factor, IC50 (AA8) air /IC50 (UV4) in air. Format: functional.
Data set [8] can be described thus: CT10 (air/N2) ratio of the product of the drug concentration to the exposure time needed to reduce cell survival to 10% of controls using AA8 cells at 10 E 6 /mL in the clonogenic assay; range is 1-2. The class given is functional, Cricetulus griseus, CHO-AA8.
The nature of data set [9]: CT10 (air/N2) ratio of the product of the drug concentration to the exposure time needed to reduce cell survival to 10% of controls using AA8 cells at 10 E 6 /mL in the clonogenic assay; range is 0.8-1.5. The class given is functional, Cricetulus griseus, CHO-AA8.

SMILES strings stand for the structures.

By IC50 is commonly meant the concentration that gives 50% inhibition. Higher therefore signals weaker potency in that assay. By pKa is commonly meant the pH at which an ionisable group is half protonated. Higher therefore signals a group that holds its proton tightly.

As to `CN(C)CCNc1c2ccccc2nc2cccc([N+](=O)[O-])c12`, the CT10 in data set [1] came to 1.22 µM·h. The CT10 ratio in data set [2] came out at 14. For the same compound, in data set [3], inhibition was half-maximal at 47 nM (IC50). The IC50 ratio in data set [4] is 7.4. In addition, the pKa in [5] was 4.9. Besides, the HF in data set [6] was determined as 15; in data set [7], 19.

The compound `CCCNc1c2ccccc2nc2cccc([N+](=O)[O-])c12` came in with a CT10 in [1] of 0.62 µM·h. The CT10 ratio in data set [2] turned out to be 3.4. The compound also returned an IC50 in [3] of 32 nM. In data set [4], the IC50 ratio is on record as 1.42. This compound displayed a pKa in data set [5] of 7.2. Besides, the HF in [6] came to 20; in data set [7], 11.

In turn, `CC(C)CCNc1c2ccccc2nc2cccc([N+](=O)[O-])c12` displayed a CT10 in [1] of 3.2 µM·h. For the same compound, the CT10 ratio in [2] was 2.4. The IC50 in [3] was 120 nM. For the same compound, the IC50 ratio in data set [4] is 1.13. The same compound returned a pKa in [5] of 7.4. In addition, the HF in data set [6] was 16; in [7] it was 12.

The compound `Nc1c2ccccc2nc2cccc([N+](=O)[O-])c12` returned a CT10 in [1] of 3.9 µM·h. For the same compound, the CT10 ratio in data set [8] is on record as 2. This compound displayed an IC50 in data set [3] of 3600 nM. In addition, the IC50 ratio in [4] is 1.02. Moreover, in data set [5], the pKa stood at 7.3. In addition, the HF in data set [6] came out at 5.8; in [7] it was 4.5.

For `O=[N+]([O-])c1cccc2nc3ccccc3c(NCCCO)c12`, in [1], the CT10 amounted to 0.43 µM·h. The CT10 ratio in [2] is on record as 3. In data set [3], the IC50 came out at 27 nM. In [4], the IC50 ratio was 1.45. Moreover, the pKa in data set [5] turned out to be 7.55. The results for the HF in data set [6] and in data set [7] were 13 and 15, respectively.

Turning to `CN(C)CCCCNc1c2ccccc2nc2cccc([N+](=O)[O-])c12`, in data set [1], the CT10 was 0.46 µM·h. In data set [2], the CT10 ratio came to 11.9. For the same compound, it took 26 nM to reach half-maximal inhibition in data set [3] (IC50). The IC50 ratio in [4] turned out to be 2.6. This compound also returned a pKa in [5] of 6.9. Further, the figures for the HF in data set [6] and in data set [7] were 29 and 20, respectively.

Regarding `O=C(O)CCCNc1c2ccccc2nc2cccc([N+](=O)[O-])c12`, the CT10 in data set [1] was found to be 50 µM·h. The CT10 ratio in data set [2] was determined as 2.5. The compound further gave an IC50 in [3] of 18000 nM. Further, in [4], the IC50 ratio was 4.2. Besides, the HF was determined as 6.6 in [6] and 6.1 in data set [7].

With `CN(C)CCCCCCNc1c2ccccc2nc2cccc([N+](=O)[O-])c12`, the CT10 in [1] turned out to be 0.38 µM·h. In [2], the CT10 ratio amounted to 6.8. In [3], this compound gave an IC50 of 11.5 nM. In [4], the IC50 ratio is 1.55. This compound also gave a pKa in data set [5] of 7.4.

The compound `O=[N+]([O-])c1cccc2nc3ccccc3c(NCCc3ccccc3)c12` displayed a CT10 in [1] of 2.8 µM·h. Also, the CT10 ratio in [2] amounted to 2.3. This compound also yielded an IC50 in [3] of 122 nM. The IC50 ratio in data set [4] amounted to 1.3. Moreover, the pKa in data set [5] amounted to 7.4. Further, the HF is 15 in data set [6] and 14 in [7].

In turn, `CN(C)CCCNc1c2ccccc2nc2cccc([N+](=O)[O-])c12` [NITRACRINE] had a CT10 in data set [1] of 0.47 µM·h. Further, in data set [2], the CT10 ratio came out at 9.9. This compound came in with an IC50 in data set [3] of 26.3 nM. Besides, the IC50 ratio in data set [4] is reported as 3.5. In addition, the pKa in data set [5] worked out at 6.2. Also, the HF came out at 14.9 in [6] and 12.9 in data set [7].

The compound `O=[N+]([O-])c1cccc2nc3ccccc3c(NCCO)c12` gave a CT10 in data set [1] of 0.13 µM·h. Further, the CT10 ratio in [2] is given as 3.2. The same compound had an IC50 in data set [3] of 11.5 nM. The IC50 ratio in data set [4] was found to be 1.1. This compound registered a pKa in [5] of 7.2. Also, the HF in data set [6] is 18; in data set [7] it was 15.

In [1], `CNc1c2ccccc2nc2cccc([N+](=O)[O-])c12` came in with a CT10 of 0.01 µM·h. In [9], the CT10 ratio was 1.5. Also, in [3], half-maximal inhibition (IC50) required 3.8 nM. In [4], the IC50 ratio is listed as 1.3. In addition, the pKa in data set [5] worked out at 7.2. Besides, the HF in data set [6] and in data set [7] was 11 each time.

For `CNCCCNc1c2ccccc2nc2cccc([N+](=O)[O-])c12`, the CT10 in data set [1] came to 0.38 µM·h. Besides, the CT10 ratio in data set [2] came out at 5.9. In data set [3], this compound gave an IC50 of 34 nM. The IC50 ratio in data set [4] is recorded as 4.8. Moreover, the pKa in data set [5] was 6.2. The values for the HF in data set [6] and in [7] were 11 and 14, respectively.

Compound `CN(C)CCCCCNc1c2ccccc2nc2cccc([N+](=O)[O-])c12` came in with a CT10 in data set [1] of 0.32 µM·h. Also, the CT10 ratio in [2] is 7. The compound also registered a half-inhibitory concentration (IC50) in data set [3] of 15.5 nM. In addition, the IC50 ratio in data set [4] is 1.65. Moreover, the pKa in data set [5] was 7.4.

In the case of `O=[N+]([O-])c1cccc2nc3ccccc3c(NCc3ccccc3)c12`, in [1], the CT10 came out at 9 µM·h. The CT10 ratio in data set [2] was 1.9. In addition, the 50% inhibitory concentration (IC50) in data set [3] stood at 380 nM. The IC50 ratio in data set [4] was 1.2. In addition, the pKa in [5] was found to be 7.4. The values for the HF in data set [6] and in [7] were 17 and 12, respectively.

(Values after ChEMBL document CHEMBL1124754, “Hypoxia-selective antitumor agents. 4. Relationships between structure, physicochemical properties, and hypoxia-selective cytotoxicity for nitracrine analogues with varying side chains: the "iminoacridan hypothesis"” (J Med Chem, 1990).)
